From PMC11579541, “In vitro, in vivo, and in silico approaches for evaluating the preclinical DMPK profiles of ammoxetine, a novel chiral serotonin and norepinephrine reuptake inhibitor” (Frontiers in Pharmacology, 2024)

Legend:
[1] = PK studies in beagle dogs; assay type: in vivo; settings: dog, in vivo; beagle dogs, same dose (2 mg/kg); prior preliminary experiment by the team, unpublished results; read-out: absolute bioavailability
Procedure: For the PK studies in rats and dogs, a total of 18 SD rats and 15 male beagle dogs were randomly divided into three groups, with six rats or five dogs per group, respectively. Prior to the experiments, all animals underwent a 12-h fasting period, while having free access to water. The animals were administered single oral doses of ammoxetine in three different dose levels: 8 mg/kg, 20 mg/kg, and 50 mg/kg for rats, and 2 mg/kg, 5 mg/kg, and 12.5 mg/kg for dogs, representing low, medium, and high doses. Serial blood samples were collected from the rats at 0, 2, 5, 15, and 30 min, as well as 1, 2, 4, 6, 8, 12, and 24 h post-dosing. For the dogs, blood samples were collected at 0, 5, 15, 30, and 45 min, as well as 1, 2, 4, 6, 8, 12, and 24 h post-dosing. Approximately 0.3 mL of blood was collected from the rats, while 2 mL of blood was collected from the dogs. The blood samples were collected into heparinized tubes. Following centrifugation, plasma samples were obtained and stored at −30°C until further analysis.
For the absolute bioavailability (F, %) study in dogs, the dogs initially received a single gastric gavage of a low dose (2 mg/kg) of ammoxetine, followed by a 1-week washout period. After the washout, the same dose of ammoxetine was administered intravenously (i.v.). To assess the effects of nonfasting on ammoxetine PK, dogs that received a medium dose (5 mg/kg) of ammoxetine via gastric gavage underwent a radical washout period of 1 week. Subsequently, they were administered the same dose of ammoxetine via gastric gavage under nonfasting conditions. To compare sex differences in ammoxetine PK, an additional five female beagle dogs were administered a medium dose (5 mg/kg) of ammoxetine via gastric gavage after a 12-h overnight fast. Blood samples (2 mL) were collected from these dogs into heparinized tubes at predose and at specified time points: 5, 15, 30, and 45 min, as well as 1, 2, 4, 6, 8, 12, and 24 h postdose. For the repeat-dose study, after completing blood collection during the initial administration, dogs receiving a single gastric gavage of a medium dose (5 mg/kg) of ammoxetine under fasting conditions were subsequently orally dosed with seven repeat doses of ammoxetine (5 mg/kg) every 12 h. Trough blood samples were collected before the fourth to last administration to ensure steady-state blood concentrations (C ss ) were achieved. Approximately 2 mL of blood was collected at specified time points after the last dose and transferred into heparinized tubes. All blood samples were then centrifuged at 4,000 r/min for 20 min to obtain plasma samples, which were stored at −30°C until analysis.
To determine the concentration of ammoxetine, 100 μL of L-phencynonate (IS, 50 ng/mL) and 300 μL of methanol were added to 100 μL of plasma samples from rats or dogs. After thorough vortexing, the mixture was centrifuged at 13,800×g for 10 min. The supernatants were then subjected to analysis using LC-MS-MS methods. PK parameters were calculated using DAS (Drug And Statistics for Windows) version 2.0, developed by the Shanghai University of Traditional Chinese Medicine, Shanghai, China. The F was determined by comparing the plasma area under the concentration-time curve (AUC) values after oral (p.o.) and intravenous (i.v.) administration of ammoxetine. F was calculated using the formula: F=AUCp.o./AUCi.v.×100% . Statistical analyses were performed using OriginPro 8.6 software. Paired sample or student’s t-test, as well as one-way ANOVA, were employed to compare the means of two or three groups, with a significance level set at p < 0.05.

P-gp = settings: ref Ruike et al., 2010; cited from earlier work

## CNCC[C@H](Oc1cccc2ccccc12)c1cccs1 [duloxetine, reference compound]
[1]
  bioavailability: ~33%
P-gp
  action on P-gp: P-gp inhibitor
